Measurements taken from patent publication US7563774B2, “Combination of FBPase inhibitors and antidiabetic agents useful for the treatment of diabetes” (Metabasis Therapeutics, Inc., priority 2000, dated 2009).

Experiments:
[1] = test system: streptozotocin diabetic Sprague Dawley rats; assay: Acute combination treatment of an FBPase inhibitor and an amylin agonist in streptozotocin diabetic rats (Example HH); assay type: in vivo, rat; conditions: pramlintide 10 micrograms i.v., Compound J 300 mg/kg p.o.
Description: Animals are then gavaged with 1 mL 50% glucose, and allowed ad libitum access to food. Blood glucose is collected from the tail vein at 0, 30, 60, 120, 180, and 240 minutes following glucose administration.

human liver FBPase = biological target: T1, human liver FBPase (Homo sapiens, UniProt P09467); assay: Inhibition of human liver FBPase (Example A); assay type: biochemical
T1 construct: made in house; host or cells: E. coli BL21
T1 sequence (P09467 2-338 limits assumed): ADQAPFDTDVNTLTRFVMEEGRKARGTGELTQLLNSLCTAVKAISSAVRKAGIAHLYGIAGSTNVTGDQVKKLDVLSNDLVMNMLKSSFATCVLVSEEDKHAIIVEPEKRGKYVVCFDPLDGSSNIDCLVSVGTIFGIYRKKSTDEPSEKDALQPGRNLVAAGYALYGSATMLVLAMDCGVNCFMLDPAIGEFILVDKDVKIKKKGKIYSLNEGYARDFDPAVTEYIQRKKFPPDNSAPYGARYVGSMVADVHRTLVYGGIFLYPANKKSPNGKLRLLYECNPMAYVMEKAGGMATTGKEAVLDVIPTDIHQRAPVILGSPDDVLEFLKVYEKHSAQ
Description: (§1) Enzymatic activity was measured spectrophotometrically in reactions that coupled the formation of product (fructose 6- phosphate) to the reduction of dimethylthiazoldiphenyltetrazolium bromide (MTT) via NADP and phenazine methosulfate (PMS), using phosphoglucose isomerase and glucose 6-phosphate dehydrogenase as the coupling enzymes. […] Inhibitor concentrations were varied from 0.01 μM to 10 μM. Reactions were started by the addition of 0.002 units of pure hlFBPase and were monitored for 7 minutes at 590 nm in a Molecular Devices Plate Reader (37° C.).

rat liver FBPase = biological target: T2, rat liver FBPase (Rattus norvegicus, UniProt P19112); assay: Inhibition of rat liver FBPase (Example B); assay type: biochemical
T2 construct: made in house; host or cells: E. coli BL21
T2 sequence (P19112 2-363 limits assumed): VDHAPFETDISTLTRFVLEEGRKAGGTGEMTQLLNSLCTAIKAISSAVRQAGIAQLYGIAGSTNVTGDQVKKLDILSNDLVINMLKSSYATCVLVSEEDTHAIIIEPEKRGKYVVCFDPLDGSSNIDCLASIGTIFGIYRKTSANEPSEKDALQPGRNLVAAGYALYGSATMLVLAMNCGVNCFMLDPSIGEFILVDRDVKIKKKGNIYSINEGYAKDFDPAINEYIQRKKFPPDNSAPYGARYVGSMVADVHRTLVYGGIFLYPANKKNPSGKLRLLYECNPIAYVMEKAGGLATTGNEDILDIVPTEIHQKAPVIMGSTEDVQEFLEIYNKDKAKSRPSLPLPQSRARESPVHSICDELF

mouse liver FBPase = biological target: T3, mouse liver FBPase (Mus musculus, UniProt Q9QXD6); assay: Inhibition of mouse liver FBPase (Example B); assay type: biochemical
T3 construct: This partially purified fraction was used for enzyme assays; from tissue; host or cells: mouse liver (45-75% ammonium sulfate fraction of homogenate)
T3 sequence (Q9QXD6 2-338 limits assumed): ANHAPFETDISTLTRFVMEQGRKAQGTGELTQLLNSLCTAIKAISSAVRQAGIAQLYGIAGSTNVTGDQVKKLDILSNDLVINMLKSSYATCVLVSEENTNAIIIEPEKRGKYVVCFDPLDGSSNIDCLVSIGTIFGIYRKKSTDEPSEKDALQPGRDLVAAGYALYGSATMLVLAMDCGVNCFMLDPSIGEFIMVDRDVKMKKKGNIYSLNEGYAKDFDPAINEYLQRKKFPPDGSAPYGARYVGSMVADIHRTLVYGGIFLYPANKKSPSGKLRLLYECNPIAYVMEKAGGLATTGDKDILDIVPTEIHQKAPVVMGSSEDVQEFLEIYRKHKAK
Description: as §1
Mouse liver FBPase was obtained by homogenizing freshly isolated mouse liver in 100 mM Tris-HCl buffer, pH 7.4, containing 1 mM EGTA, and 10% glycerol. […] This fraction was redissolved in the homogenization buffer and desalted on a PD-10 gel filtration column (Biorad) eluted with same. This partially purified fraction was used for enzyme assays.

[2] = test system: streptozotocin-induced diabetic rat; assay: Chronic combination treatment of a fatty acid oxidation inhibitor and an FBPase inhibitor in the streptozotocin-induced diabetic rat (Example JJ); assay type: in vivo; conditions: etomoxir 3-300 mg/kg s.c., Compound J 0.2% w/w food admixture, 2-6 weeks
Description: Male Sprague-Dawley rats (Charles Rivers Laboratories) weighing approximately 120 g at the beginning of the study are housed under standard vivarium conditions and fed standard chow (Purina 5001). Rats are rendered diabetic by injection of 55 mg/kg body weight of streptozotocin (STZ) in citrate buffer, pH 4.7. […] Drug treatment is continued for 2-6 weeks. Blood glucose levels are monitored at regular intervals during the treatment period. At the end of the study, rats are anesthetized and instrumented with jugular vein and carotid artery catheters. Hepatic glucose production is measured using a primed constant infusion of (^3H)-6-glucose. Blood samples are taken after two hours, and the specific activity of glucose measured by […]. Hepatic glucose production rater are calculated by standard methods.

Sprague Dawley rats = assay: Oral glucose lowering in overnight fasted Sprague Dawley rats (Example G); assay type: in vivo, rat; conditions: 4 h
Description: Oral efficacy of Compound J was assessed in overnight fasted Sprague Dawley rats. […] At 1.5 h or 4 h post drug administration, a blood sample was taken from the tail vein and analyzed for blood glucose by means of an automated glucose analyzer (HemoCue, HemoCue Inc, Mission Viejo, Calif.).

db/db mice = assay: Glucose lowering in the db/db mouse (Example V); assay type: in vivo; conditions: last treatment day (day 18)
Description: Treatment was for 18 days. […] Differences between groups were evaluated by the Student's t-test. Results are considered significant with p<0.05.

[3] = test system: Zucker Diabetic Fatty (ZDF) rat; assay: Glucose lowering in the ZDF rat (Example W); assay type: in vivo
Text: The Zucker Diabetic Fatty (ZDF) rat is widely used as a model for human NIDDM as the progression of the disease in these rodents is similar to that described for human […] patients. […] Clark J B, Palmer C J (1982) Diabetes 30: 126A Terrettaz J, Jeanrenaud B (1983) Endocrinology 112: 1346-1351.

C57BL/KsJ db/db mice [4] = assay: Acute combination treatment of insulin and Compound G in db/db mice (Example Z); assay type: in vivo, mouse
Description: Male C57BL/KsJ db/db mice were purchased at 5 weeks of age from Clea Japan, Inc. (Tokyo, Japan). The mice were maintained under standard vivarium conditions (24-26° C., 12-hour light cycle, 12-hour dark cycle) and received standard chow and water ad libitum. At 20 weeks of age, animals were divided into 4 groups (n=6/group). The treatment groups were control, compound G, insulin, and the combination of compound G and insulin. […] Insulin (human recombinant insulin, Penfill R300, Novo Nordisk, Denmark) was injected subcutaneously at a dose of 1.5 U/kg. Food was removed after treatment. Blood glucose levels in tail vein samples were measured by means of a Glucoloader-F, an automatic glucose analyzer, (A&T Co., Ltd., Tokyo, Japan).

C57BL/KsJ db/db mice [5] = assay: Chronic combination treatment of insulin and Compound G in db/db mice (Example AA); assay type: in vivo, mouse; conditions: db/db mice, 3 weeks
Description: Male C57BL/KsJ db/db mice were purchased at 5 weeks of age from Clea Japan, Inc. (Tokyo, Japan). The mice were maintained under standard vivarium conditions (24-26° C., 12-hour light cycle, 12-hour dark cycle) and received standard chow and water ad libitum. At 16 weeks of age, animals were divided into 2 groups (n=5 or 9-10/group). Both groups were subcutaneously injected with human recombinant insulin (Penfill N300, Novo Nordisk, Denmark) on a daily basis to adjust plasma glucose levels to the target range of 250 to 300 mg/dL.

[6] = test system: Zucker Diabetic Fatty rats; assay: Acute combination treatment of an insulin secretagogue and Compound J in the ZDF rat (Example X); assay type: in vivo
Description: Experimental Protocol: Zucker Diabetic Fatty rats (9.5 weeks of age) were fasted for 5 hours starting at 8 am. The animals were then divided into 4 treatments groups with statistically similar baseline blood glucose levels. Test compounds were administered by oral gavage. The treatments were as shown below:
One hour after saline or drug administration, all animals received a simulated meal in the form of an oral bolus of glucose (1 g/kg). Blood glucose was then monitored at regular time intervals for 3 hours. Test compounds were prepared as suspensions in 0.1% carboxymethylcellulose. Blood samples were obtained by nicking of a tail vein. Blood glucose was measured by means of a HemoCue glucose analyzer according to the manufacturer's instructions (HemoCue Inc., Mission Viejo, Calif.). Results are expressed as the mean ± standard error of the mean for all values.

ZDF rats = assay: Chronic combination treatment of an insulin secretagogue and an FBPase inhibitor in the ZDF rat (Example Y); assay type: in vivo; conditions: maximal doses, 2 to 12 weeks
Text: Male ZDF rats are purchased at 7 weeks of age from Genetics Models Inc. (Indianapolis, Ind.). […] At 8 weeks of age, animals are divided into 4 treatment groups (n=8/group). The treatments are control, Compound J, glyburide, and the combination of Compound J and glyburide. […] Other parameters measured by standard assays include: lactate, glycerol, alanine, triglycerides, free fatty acids, ketone bodies, hepatic and muscle glycogen, cholesterol, VLDL, HDL, hemoglobin Alc, body weight, food and water intake, as well as other measures of carbohydrate, lipid, and protein metabolism. […] Differences between groups are evaluated ANOVA using an appropriate post hoc test. Results are considered significant with p<0.05.

[7] = test system: Sprague-Dawley or Wistar rats; conditions: fasted rat, cited from earlier work
Db/db or ob/ob mice = assay: Acute combination treatment of a glycogen phosphorylase inhibitor and an FBPase inhibitor in db/db or ob/ob mice (Example FF); assay type: in vivo, mouse; conditions: 0.5 to 300 mg/kg p.o.
Description: Db/db or ob/ob mice are purchased at 5 weeks of age from Jackson Laboratories (Bar Harbor, Me.). The mice are maintained under standard vivarium conditions (24-26° C., 12-hour light cycle, 12-hour dark cycle) and receive standard chow and water ad libitum. At more than 10 weeks of age, animals are divided into 4 groups (n=5 to 7/group). […] Food is made available after treatment. Blood glucose levels in tail vein samples are measured by means of standard manual or automated methods.

## CC[C@H](C)[C@H](NC(=O)[C@@H]1CCCN1C(=O)CNC(=O)[C@H](Cc1ccccc1)NC(=O)[C@H](CC(N)=O)NC(=O)[C@H](CC(N)=O)NC(=O)[C@H](CO)NC(=O)[C@H](CO)NC(=O)[C@H](Cc1c[nH]cn1)NC(=O)[C@@H](NC(=O)[C@H](CC(C)C)NC(=O)[C@H](Cc1ccccc1)NC(=O)[C@H](CC(N)=O)NC(=O)[C@H](C)NC(=O)[C@H](CC(C)C)NC(=O)[C@H](CCCNC(=N)N)NC(=O)[C@H](CCC(N)=O)NC(=O)[C@@H](NC(=O)[C@H](C)NC(=O)[C@@H]1CSSC[C@H](NC(=O)[C@@H](N)CCCCN)C(=O)N[C@@H](CC(N)=O)C(=O)N[C@@H]([C@@H](C)O)C(=O)N[C@@H](C)C(=O)N[C@@H]([C@@H](C)O)C(=O)N1)[C@@H](C)O)C(C)C)C(=O)N[C@@H](CC(C)C)C(=O)N1CCC[C@H]1C(=O)N1CCC[C@H]1C(=O)N[C@H](C(=O)N[C@@H](CC(N)=O)C(=O)N[C@H](C(=O)NCC(=O)N[C@@H](CO)C(=O)N[C@@H](CC(N)=O)C(=O)N[C@H](C(=O)N[C@@H](Cc1ccc(O)cc1)C(N)=O)[C@@H](C)O)C(C)C)[C@@H](C)O [pramlintide, reference compound]
[1]
  postprandial glucose excursion: attenuated the postprandial glucose excursion

## Nc1ncnc2c1ncn2[C@@H]1O[C@H](COP(=O)(O)O)[C@@H](O)[C@H]1O [AMP]
Human liver FBPase
  IC50: 1.3 µM
Rat liver FBPase
  IC50: 25 µM
Mouse liver FBPase
  IC50: 15 µM

## CCOC(=O)[C@@]1(CCCCCCOc2ccc(Cl)cc2)CO1 [etomoxir, reference compound]
[2]
  Blood Glucose: lowered significantly

## CSc1sc(N)nc1-c1ccc(P(=O)(O)O)o1 [Compound G, 2-Amino-5-methylthio-4-[2-(5-phosphono)furanyl]thiazole]
Sprague Dawley rats; Compound G 10 mg/kg p.o.
  Glucose Lowering, %: 48%
Sprague Dawley rats; Compound G 30 mg/kg p.o.
  Glucose Lowering, %: >70%
db/db mice
  blood glucose levels versus control group: significantly lower than those in the control group
[3]
  glycemic control: significantly improved glycemic control
[3]; 0.2% food admixture, Day 14
  Blood Glucose: 530 ± 48 mg/dL
C57BL/KsJ db/db mice [4]; after 1 hour
  Plasma Glucose, % of pretreatment values: (84.2 +/− 1.9) %
C57BL/KsJ db/db mice [4]; after 1 hour, Compound G 200 mg/kg p.o., insulin 1.5 U/kg s.c.
  Plasma Glucose: 650.8 ± 14.8 mg/dL
C57BL/KsJ db/db mice [4]; after 4 hours
  Plasma Glucose: 373.7 ± 24.7 mg/dL
  Plasma Glucose, % of pretreatment values: (48.6 +/− 4.0) %
C57BL/KsJ db/db mice [4]; after […]
  Plasma Glucose: 459.7 ± 11.5 mg/dL
  Plasma Glucose, % of pretreatment values: (59.6 +/− 2.3) %
C57BL/KsJ db/db mice [4]; before (0 hour)
  Plasma Glucose: 774.0 ± 18.3 mg/dL
  Plasma Glucose, % of pretreatment values: (100.0 +/− 0.0) %
C57BL/KsJ db/db mice [4]; db/db mice, acute
  plasma glucose lowering: progressively decreased plasma glucose levels
C57BL/KsJ db/db mice [5]
  insulin dose required to lower plasma glucose to the target range: remarkably decreased the insulin dose required

## COc1ccc(Cl)cc1C(=O)NCCc1ccc(S(=O)(=O)NC(=O)NC2CCCCC2)cc1 [Glyburide, glyburide, reference compound]
[6]; glyburide 100 mg/kg, Compound J 300 mg/kg p.o.
  blood glucose after oral glucose load (FIG. 1): suppressed the rise in blood glucose levels
[6]; initial 4 hours post drug, glyburide 100 mg/kg, Compound J 300 mg/kg p.o., oral glucose 1 g/kg
  AUC glucose: 1324 ± 132 mg·h/dL
[6]; pilot studies, ZDF rat
  maximally efficacious dose: 100 mg/kg
ZDF rats
  glycemic control: becomes less and less effective over time
[7]; 2 h
  ED50: 0.255 (2 h) mg/kg
[7]; Dose 0.3
  Gluc low,%: −25%

## CN(C)C(=O)[C@H](O)[C@H](Cc1ccccc1)NC(=O)c1cc2cc(Cl)ccc2[nH]1 [CP-91149, reference compound]
Db/db or ob/ob mice
  blood glucose lowering: significantly lower blood glucose relative to control values
